From the Deep4Chem optical property database come the findings set out here.

A short description of the data set: solvent given as SMILES.

The structures appear in SMILES notation.

As to `c1ccc(N2c3ccccc3Sc3cc(-c4cccc5nc6ccccc6cc45)ccc32)cc1`, the absorption maximum reads like this: (in C1CCOC1) 407 nm; (in CC#N) 407 nm; (in CC(C)=O) 407 nm; (in CC(C)OC(C)C) 407 nm; (in CCCCCC) 407 nm; (in CCCCOCCCC) 407 nm. The absorption maximum reads like this: (in CCN(CC)CC) 407 nm; (in CCOC(C)=O) 407 nm; (in CCOCC) 407 nm; (in CN(C)C=O) 407 nm; (in ClCCl) 407 nm.

Regarding `c1ccc(-c2nn(-c3ccccc3)c3nc4ccccc4cc23)cc1`, the absorption maximum reads like this: (in C1CCCCC1) 401.45 nm; (in C1CCOC1) 398.57 nm; (in CC#N) 396.83 nm; (in CC(C)=O) 396.04 nm; (in CCCCCl) 398.72 nm; (in CCCCOCCCC) 398.57 nm. The absorption maximum (in CN(C)C=O) was found to be 397.93 nm.

On to `C=CCOC(=O)C(C#N)=C1C=C(/C=C/c2ccc(N(C)C)cc2)OC(/C=C/c2ccc(N(C)C)cc2)=C1`, for which the absorption maximum runs as follows: (in C1CCOC1) 470 nm; (in C1COCCO1) 462 nm; (in CC#N) 476 nm; (in CN(C)C=O) 486 nm; (in Cc1ccccc1) 467 nm; (in ClC(Cl)Cl) 479 nm. Besides, the absorption maximum reads like this: (in ClCCCl) 482 nm; (in ClCCl) 481 nm.

Consider `Cn1c2ccccc2[c+](-c2ccccc2)c2cc([N+](=O)[O-])ccc21`, for which the absorption maximum came to 428.3 nm (in CC#N), 426.3 nm (in CCO), 432.1 nm (in CO) and 434.3 nm (in CS(C)=O).

For `COc1ccc(-n2c3ccccc3c3c(C)cc4ccccc4c32)cc1`, the absorption maximum (in ClCCl) is 303 nm.

`c1ccc(C2=Nc3cccc4[n+]3[B-](c3ccccc3)(N2)NC(c2ccccc2)=N4)cc1` gave an absorption maximum (in ClCCl) of 440 nm.

`CCCCCCc1sc(CCCCCC)c2c3ccsc3c3sccc3c12` showed an absorption maximum (in ClC(Cl)Cl) of 383 nm.

Consider `CCOC(=O)c1ccccc1-c1c2ccc(=[N+](CC)CC)cc-2oc2c1oc1cc(N)ccc12`, for which the absorption maximum runs as follows: (in CCO) 590 nm; (in ClCCl) 587 nm; (in O) 588 nm.

In turn, `N#C/C(=C\c1ccc([N+](=O)[O-])cc1)c1nc(-c2ccccc2)cs1` returned an absorption maximum (in CC#N) of 382 nm.

Regarding `Cc1cc(-c2ccccc2C)cc(C)[o+]1`, the absorption maximum was 327 nm (in CC#N) and 343 nm (in ClCCl).

In turn, `CC(C)(C)c1cc2ccc3c(-c4ccc(N(c5ccccc5)c5ccccc5)cc4)ccc4c5nc6cc(C#N)c(C#N)cc6nc5c(c1)c2c34` gave an absorption maximum (in Cc1ccccc1) of 500 nm.

Consider `CCN(CC)c1ccc(/C=N/c2ccccc2/N=C/c2ccc(N(CC)CC)cc2O)c(O)c1`, for which the absorption maximum reads like this: (in CC#N) 442 nm; (in CN(C)C=O) 490 nm; (in ClCCl) 442 nm.

As to `O=[N+]([O-])c1ccc2nc3cc4ccccc4cc3c(-c3ccccc3)c2c1`, the absorption maximum (in ClCCl) stood at 400 nm.

Regarding `CC(C)(C)OC(=O)CN1CCN(c2ccc3c(-c4ccc(I)cc4)c4ccc(=[N+]5CCN(CC(=O)OC(C)(C)C)CC5)cc-4oc3c2)CC1`, the absorption maximum (in ClCCl) is recorded as 564 nm.

Under “in ClC(Cl)Cl”, `COc1cc(-c2cc(-c3ccccc3)c(-c3ccccc3)c(-c3ccccc3)c2-c2ccccc2)c(OC)cc1-c1ccc(N(C)C)cc1` displayed an absorption maximum of 329 nm.

Consider `O=C1C=C(Nc2ccc(F)cc2[N+](=O)[O-])C(=O)c2ccccc21`, for which, where the note is “in CO”, the absorption maximum amounted to 448 nm.

Regarding `CNC(=O)[C@H](C)NC(=O)c1cccc2c1C#Cc1c(NC(=O)[C@@H](NC(C)=O)C(C)C)cccc1OCCCO2`, the absorption maximum is, setting by setting: (in CC#N) 324 nm; (in ClCCl) 336 nm.

Turning to `c1cc2c3c(c1)ccc1[n+]3[B-]3(Oc4cccc5ccc6[n+](c45)[B-](O2)(O3)n2c-6cc3c4ccccc4c4ccccc4c32)n2c-1cc1c3ccccc3c3ccccc3c12`, the absorption maximum (in ClCCl) was found to be 472 nm.
